Results as given in patent US20200039930A1, “PROLINE AMIDE COMPOUNDS AND THEIR AZETIDINE ANALOGUES CARRYING A SPECIFICALLY SUBSTITUTED BENZYL RADICAL” (AbbVie Deutschland GmbH & Co. KG, priority 2017, published 2020).

How the values were obtained:
5-HT2C receptor = biological target: T1, 5-HT2C receptor (Homo sapiens, UniProt P28335); assay: Human 5-HT2C functional assay (beta-arrestin2 recruitment, U2OS_HTR2C_β-Arrestin cells); assay type: cell-based; conditions: compounds used as acid addition salts; for EC50: U2OS_HTR2C_β-Arrestin cells, 1.5 h incubation, read-out: EC50 5-HT2C (potency in functional assay); for Emax: relative efficacy vs response to 10 µM 5-HT or maximal effect of 5-HT (100%)
T1 construct: host or cells: U2OS
Description: The functional activity of compounds of formula I was assayed by incubation with U2OS_HTR2C_β-Arrestin cells (DiscoverX, 93-0289C3) to induce beta-arrestin2 recruitment to the 5-HT2C receptor. The agonist-induced recruitment and proximity of the receptor and beta-arrestin2 leads to complementation and formation of active β-galactosidase. The enzyme complementation results in enzyme activity, which is measured following the termination of the agonist incubation using DiscoveRx's detection reagent, which contains a chemiluminescent substrate which produces a high intensity signal. Cells were plated and a medium-change to a 1% serum containing medium was performed 24 h later. The next day, test compounds were added and incubated for 1.5 h before addition of detection reagent.
The response produced was measured and compared with the response produced by 10 [mu]M 5-HT or the maximal effect induced by 5-HT (defined as 100%) to which it was expressed as a percentage response (relative efficacy). Dose response curves were con-structed using Graphpad Prism (Graph Software Inc.) or using in house adapted software using a 4 parameter dose response model with variable slope (fit=(Bottom+(Top−Bottom)/(1+10^((LogEC50−x)*Hill Slope))res=(y−fit)). Results are compiled in the table below.

[1] = Metabolic stability: unbound intrinsic clearance in liver microsomes; assay type: in vitro ADME; conditions: rat; liver microsomes 0.25 mg protein/mL, 0.5 μM compound, pH 7.4, 37° C.; Cl int unbound=Cl int/fu mic; compounds used as acid addition salts; read-out: Cl int, mic unb. (r) (unbound intrinsic clearance)
Description: Samples of the tested compounds (0.5 μM) were preincubated together with rat liver microsomes (0.25 mg of microsomal protein/mL) in 0.05 M potassium phosphate buffer of pH 7.4 in microtiter plates at 37° C. for 5 minutes. The reaction was started by adding NADPH (1.0 mM). After 0, 5, 10, 15, 20 and 30 minutes, an aliquot was removed, the reaction was cooled and stopped by adding twice the amount of quench solution consisting of acetonitrile/methanol 1:1, and containing […] carbutamide as internal standard. The samples were frozen until analyzed. The remaining concentration of undegraded test substance was determined by liquid chromatography-tandem mass spectrometry (LC-MS/MS). The half-life (t1/2) was determined from the gradient of the ratio of the signal of (test substance/internal standard)/unit time plot, allowing the calculation of the half-life of the test substance, assuming first order kinetics, from the decrease in the concentration of the compound with time. The microsomal clearance (mClint) was calculated as follows: mClint=((ln(2)/t 1/2)/Microsomal Protein Concentration (mg/ml))*1000, leading to the unit of uL/min/mg. The scaled clearance (mClin_scaled) was calculated as mCLint_scaled=m CLint*(Microsomal Yield (mg/kg BW))/1000000*60, leading to the units L/h/kg. The Microsomal Yield is defined by the specifics of the used microsomes. Calculations were modified from refer-ences: Di, The Society for Biomolecular Screening, 2003, 453-462; Obach, D M D, 1999 vol 27. N 11, 1350-1359.
A suspension of 0.25 mg/ml microsomal protein spiked with 0.5 μM of test compound was pipetted on one side of a HTDialysis device (HTDialysis LLC,37 Ledgewood Drive, Gales Fery Conn. 06335) separated by a membrane with a MWcut off 12-14 K. 50 mM K-Phosphate buffer (pH 7.4) was added on the other side of the well. After incubation at 37° C. for 4 h while shaking at 150 rpm, aliquots of both sides were taken, quenched with MeOH/ACN 1:1 and 0.2 μM of internal standard and frozen until analy-sis by LCMSMS.
Cl int unbound=Cl int/fu mic
The compounds were used in form of their respective acid addition salts.

T1 sequence (P28335 33-458): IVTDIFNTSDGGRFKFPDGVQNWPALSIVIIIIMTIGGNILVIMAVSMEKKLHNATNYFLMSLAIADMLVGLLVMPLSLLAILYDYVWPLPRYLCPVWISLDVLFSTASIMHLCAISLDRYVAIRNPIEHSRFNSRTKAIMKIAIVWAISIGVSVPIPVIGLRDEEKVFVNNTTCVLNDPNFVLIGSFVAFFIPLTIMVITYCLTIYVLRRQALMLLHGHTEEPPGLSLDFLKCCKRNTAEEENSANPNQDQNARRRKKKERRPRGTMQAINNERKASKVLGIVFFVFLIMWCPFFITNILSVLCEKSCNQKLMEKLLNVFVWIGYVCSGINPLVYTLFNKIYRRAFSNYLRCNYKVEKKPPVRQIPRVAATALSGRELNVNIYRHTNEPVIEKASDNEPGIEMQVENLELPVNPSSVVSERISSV
T1 sequence (P32121 whole entry partner): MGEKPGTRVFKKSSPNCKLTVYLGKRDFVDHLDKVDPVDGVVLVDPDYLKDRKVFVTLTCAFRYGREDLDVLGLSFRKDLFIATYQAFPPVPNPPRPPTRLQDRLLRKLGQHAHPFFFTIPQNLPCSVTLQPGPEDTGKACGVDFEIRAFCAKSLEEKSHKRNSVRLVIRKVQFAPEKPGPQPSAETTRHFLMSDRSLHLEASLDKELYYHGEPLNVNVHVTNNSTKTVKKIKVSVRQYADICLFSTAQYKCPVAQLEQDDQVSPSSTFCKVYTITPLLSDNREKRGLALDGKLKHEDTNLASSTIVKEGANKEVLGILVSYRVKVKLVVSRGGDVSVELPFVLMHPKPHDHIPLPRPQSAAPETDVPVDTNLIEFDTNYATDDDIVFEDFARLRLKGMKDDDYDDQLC

SMILES | EC50 (5-HT2C receptor) | Emax (5-HT2C receptor) | CLint scaled at 0.5 μM [1]
COc1cc(OCC(C)CC(F)(F)F)c(F)cc1CNC(=O)[C@@H]1CCCN1 (stereo partly drawn) [Example 25, (2S)—N-[[5-Fluoro-2-methoxy-4-(4,4,4-trifluoro-2-methyl-butoxy)phenyl]methyl]-pyrrolidine-2-carboxamide] | < 5 nM | > 70% | 500 to 1330 mL/min/kg
COc1cc(OC2CC(F)(F)C2)c(F)cc1CNC(=O)[C@@H]1CCCN1C [Example 37, (2S)—N-[[4-(3,3-Difluorocyclobutoxy)-5-fluoro-2-methoxy-phenyl]methyl]-1-methyl-pyrrolidine-2-carboxamide] | 5 to 15 nM | > 70% | 500 to 1330 mL/min/kg
COc1cc(O[C@H]2CC[C@H](C(F)(F)F)CC2)c(F)cc1CNC(=O)[C@@H]1CCCN1C [Example 39, (2S)—N-(5-Fluoro-2-methoxy-4-((trans-4-(trifluoromethyl)cyclohexyl)oxy)benzyl)-1-methyl-pyrrolidine-2-carboxamide] | 15 to 30 nM | > 70% | 500 to 1330 mL/min/kg
COc1cc(OCc2cncc(F)c2)c(F)cc1CNC(=O)[C@@H]1CCCN1 [Example 9, (2S)—N-[[5-Fluoro-4-[(5-fluoro-3-pyridyl)methoxy]-2-methoxy-phenyl]methyl]-pyrrolidine-2-carboxamide] | 15 to 30 nM | > 70% | 500 to 1330 mL/min/kg
COc1cc(OCC2CCC(F)(F)C2)c(F)cc1CNC(=O)[C@@H]1CCCN1C (stereo partly drawn) [Example 38, (2S)—N-[[4-[(3,3-Difluorocyclopentyl)methoxy]-5-fluoro-2-methoxy-phenyl]methyl]-1-methyl-pyrrolidine-2-carboxamide] | 15 to 30 nM | > 70% | 1330 to 4170 mL/min/kg
COc1cc(OCc2c(F)ccc(F)c2Cl)c(F)cc1CNC(=O)[C@@H]1CCCN1 [Example 7, (2S)—N-[[4-[(2-Chloro-3,6-difluoro-phenyl)methoxy]-5-fluoro-2-methoxy-phenyl]-methyl]pyrrolidine-2-carboxamide] | 15 to 30 nM | > 70% | 1330 to 4170 mL/min/kg
COc1cc(OC2CCC(F)(F)CC2)c(F)cc1CNC(=O)[C@@H]1CCCN1C [Example 40, (2S)—N-[[4-(4,4-Difluorocyclohexoxy)-5-fluoro-2-methoxy-phenyl]methyl]-1-methyl-pyrrolidine-2-carboxamide] | 15 to 30 nM | > 70% | 500 to 1330 mL/min/kg
COc1cc(OCC2CC2(F)F)c(F)cc1CNC(=O)[C@@H]1CCCN1 (stereo partly drawn) [Example 26, (2S)—N-[[4-[(2,2-Difluorocyclopropyl)methoxy]-5-fluoro-2-methoxy-phenyl]-methyl]pyrrolidine-2-carboxamide] | 15 to 30 nM | > 70% | < 500 mL/min/kg
COc1cc(OCc2ccc(C(F)(F)F)nc2)c(F)cc1CNC(=O)[C@@H]1CCCN1 [Example 10, (2S)—N-[[5-fluoro-2-methoxy-4-[[6-(trifluoromethyl)-3-pyridyl]methoxy]phenyl]-methyl]pyrrolidine-2-carboxamide] | 15 to 30 nM | > 70% | 500 to 1330 mL/min/kg

Other lines, results leading:

EC50 (5-HT2C receptor) | Emax (5-HT2C receptor) | CLint scaled at 0.5 μM [1] | SMILES
< 5 nM | > 70% | 1330 to 4170 mL/min/kg | COc1cc(OCCc2ccccc2F)c(F)cc1CNC(=O)[C@@H]1CCCN1 [Example 13, (2S)—N-[[5-Fluoro-4-[2-(2-fluorophenyl)ethoxy]-2-methoxy-phenyl]methyl]-pyrrolidine-2-carboxamide]
15 to 30 nM | > 70% | < 500 mL/min/kg | COc1cc(O[C@H]2CC[C@@H](F)CC2)c(F)cc1CNC(=O)[C@@H]1CCCN1 [Example 16, (S)—N-(5-Fluoro-4-((cis-4-fluorocyclohexyl)oxy)-2-methoxybenzyl)pyrrolidine-2-carboxamide]
< 5 nM | > 70% | < 500 mL/min/kg | [2H]C1([2H])NC([2H])(C(=O)NCc2cc(F)c(OC3CCC(C(F)(F)F)CC3)cc2OC)C([2H])([2H])C1([2H])[2H] (stereo not drawn) [Example 42, 2,3,3,4,4,5,5-Heptadeuterio-N-[[5-fluoro-2-methoxy-4-[4-(trifluoromethyl)cyclohexoxy]phenyl]methyl]pyrrolidine-2-carboxamide]
< 5 nM | > 70% | 1330 to 4170 mL/min/kg | COc1cc(OCc2cc(F)cc(F)c2)c(F)cc1CNC(=O)[C@@H]1CCCN1 [Example 5, (2S)—N-[[4-[(3,5-Difluorophenyl)methoxy]-5-fluoro-2-methoxy-phenyl]methyl]-pyrrolidine-2-carboxamide]
5 to 15 nM | > 70% | < 500 mL/min/kg | COc1cc(O[C@H]2CC[C@H](F)CC2)c(F)cc1CNC(=O)[C@@H]1CCCN1 [Example 17, (S)—N-(5-Fluoro-4-((trans-4-fluorocyclohexyl)oxy)-2-methoxybenzyl)pyrrolidine-2-carboxamide]
5 to 15 nM | > 70% | 1330 to 4170 mL/min/kg | COc1cc(OCCc2cccc(F)c2)c(F)cc1CNC(=O)[C@@H]1CCCN1 [Example 12, (2S)—N-[[5-Fluoro-4-[2-(3-fluorophenyl)ethoxy]-2-methoxy-phenyl]methyl]-pyrrolidine-2-carboxamide]
< 5 nM | > 70% | < 500 mL/min/kg | COc1cc(OCC2CC(F)(F)C2(F)F)c(F)cc1CNC(=O)[C@@H]1CCCN1 (stereo partly drawn) [Example 30, (2S)—N-[[5-Fluoro-2-methoxy-4-[(2,2,3,3-tetrafluorocyclobutyl)methoxy]phenyl]-methyl]pyrrolidine-2-carboxamide]
5 to 15 nM | > 70% | 1330 to 4170 mL/min/kg | COc1cc(OCc2cc(F)cc(F)c2F)c(F)cc1CNC(=O)[C@@H]1CCCN1 [Example 2, (2S)—N-[[5-Fluoro-2-methoxy-4-[(2,3,5-trifluorophenyl)methoxy]phenyl]methyl]-pyrrolidine-2-carboxamide]
5 to 15 nM | > 70% | < 500 mL/min/kg | COc1cc(OC2CCC(F)(F)CC2)c(F)cc1CNC(=O)[C@@H]1CCCN1 [Example 18, (2S)—N-[[4-(4,4-Difluorocyclohexoxy)-5-fluoro-2-methoxy-phenyl]methyl]-pyrrolidine-2-carboxamide]
5 to 15 nM | > 70% | < 500 mL/min/kg | COc1cc(OCC2CC(F)(F)C2)c(F)cc1CNC(=O)[C@@H]1CCCN1 [Example 29, (2S)—N-[[4-[(3,3-Difluorocyclobutyl)methoxy]-5-fluoro-2-methoxy-phenyl]methyl]-pyrrolidine-2-carboxamide]
5 to 15 nM | > 70% | < 500 mL/min/kg | COc1cc(OCC2CCC(F)(F)CC2)c(F)cc1CNC(=O)[C@@H]1CCCN1 [Example 32, (2S)—N-[[4-[(4,4-Difluorocyclohexyl)methoxy]-5-fluoro-2-methoxy-phenyl]methyl]-pyrrolidine-2-carboxamide]
5 to 15 nM | > 70% | < 500 mL/min/kg | COc1cc(OCC2CCC(F)(F)C2)c(F)cc1CNC(=O)[C@@H]1CCCN1 (stereo partly drawn) [Example 31, (2S)—N-[[4-[(3,3-Difluorocyclopentyl)methoxy]-5-fluoro-2-methoxy-phenyl]methyl]-pyrrolidine-2-carboxamide]
5 to 15 nM | > 70% | 1330 to 4170 mL/min/kg | COc1cc(O[C@H]2CC[C@@H](C(F)(F)F)CC2)c(F)cc1CNC(=O)[C@@H]1CCCN1 [Example 34, (S)—N-(5-Fluoro-4-((cis-4-trifluoromethyl-cyclohexyl)oxy)-2-methoxybenzyl)-pyrrolidine-2-carboxamide]
